Tested on: surrounding liver tissue and major tissues
Experiment: Histology of surrounding liver and major tissues after intraarterial injection or embolization
Details: rabbit, in vivo
Method: Administration of anesthesia, intravenous access and sodium pentothal anesthesia were carried out as described in Example 12. Transcatheter hepatic artery injection of 3-BrPA was performed under fluoroscopy. The animals were brought to the angiography suite and intubated using a size 3.0 mm endotracheal tube (Mallinkrodt Medical, St. Louis, Mo.) but not ventilated. Surgical cut-down was performed to gain access into the right common femoral artery, after which a 3 French sheath (Cook Inc., Bloomington, Ind.) was placed. A specially manufactured 2 French catheter with a tip in the shape of a hockey-stick (JB1 catheter, Cook Inc., Bloomington, Ind.) was manipulated into the celiac axis after which a celiac arteriogram was performed in order to delineate the blood supply to the liver and confirm the location of the tumor. The tumor could readily be visualized as a region of hypervascular blush located on the left side of the liver near the gastric fundus. […]
Normal tissues and tumors were fixed in 10% formalin, sliced at […] intervals for gross examination, and then embedded completely in paraffin after which […] sections were stained with hemotoxylin and eosin. Tumor viability was estimated by visual inspection and expressed as a percentage of viable tumor area for each slice. The overall percentage of viable tumor in each rabbit was calculated. […]

Q: How did the “damage to 9 major tissues” value turn out when `O=C(O)C(=O)CBr` [3BrPA, 3-bromopyruvic acid] was run?
A: In no case was there evidence for damage

Q: What about the “state of portal veins, sinusoids and bile ducts” value of the same compound?
A: remained completely intact
